{"source": "patent US8759073B2", "about": "“Method for effectively controlling harmful organisms in large-scale culture of microalgae” (ENN Science & Technology Development Co., Ltd., priority 2009, dated 2014)", "key": {"Chlorella sp.": {"system": "Chlorella sp.", "assay": "Growth of cultured algae after treatment, 320 L bubbling reactor", "description": "(§1) pH of the normally cultured microalgae is adjusted into various ranges. The growth rate of the microalgae is measured and their appearance is observed under a microscope.\n(§2) Chlorella sp. (purchased from FACHB collection, Wuhan Aquatic Research Institure, Chinses Academy of Sciences) was cultured in a 320 L bubbling reactor (manufactured by Longfang Jiangchuan plexiglass Co. Ltd., φ300 mm×2 m) out-of-doors under a sunlight film. The culture condition included: a temperature of about 25 °C, a humidity of 60%-80%, and an illumination of 8000-20000 lux. Modified SM (see Table 2) (pH 7.0-9.0 for the normal culture) was used. […] Then, CO2 was aerated to adjust pH to be 7.0-8.0.\nChlorella sp. (purchased from FACHB collection, Wuhan Aquatic Research Institure, Chinses Academy of Sciences) was cultured in a 320 L bubbling reactor (manufactured by Longfang Jiangchuan plexiglass Co. Ltd., φ300 mm×2 m) out-of-doors under a sunlight film. Modified SM medium (see Table 2) (pH 7.0-9.0 for the normal culture) was used. The culture condition included: a temperature of about 25 °C, a humidity of 60%-80%, and an illumination of 8000-20000 lux. […] Then air was sufficiently aerated, and pH was raised to 7.0-7.5 after 4 hours.\n(§3) Chlorella sp. (obtained from Jinan University) was cultured in a 320 L bubbling reactor (manufactured by Longfang Jiangchuan plexiglass Co. Ltd., φ300 mm×2 m) out-of-doors under a sunlight film (with a temperature of about 25 °C, a humidity of 60%-80%, and an illumination of 8000-20000 lux). Modified SM medium (see Table 2) was used. When Amoeba, Oxyrrhis and ciliate contaminations were observed is with an oil immersion lens (Nikon fluorescent invert microscope Ti series), pH was adjusted to 11.0-11.8 with 1M NaOH. […] Then, CO2 was aerated continuously to saturation (pH 5.6). […] Then air was sufficiently aerated.\nas §2, with “film. Modified SM medium (see Table 2) (pH 7.0-9.0 for the normal culture) was used.” for “film.”, “lux.” for “lux. Modified SM (see Table 2) (pH 7.0-9.0 for the normal culture) was used.”, “Then” for “Then,”, “aerated and pH was adjusted” for “aerated”, “to” for “to adjust pH to be”\nChlorella sp. (obtained from Jinan University) was cultured in a 320 L bubbling reactor (manufactured by Longfang Jiangchuan plexiglass Co. Ltd., φ300 mm×2 m) out-of-doors under a sunlight film (with a temperature of about 25 °C, a humidity of 60%-80%, and an illumination of 8000-20000 lux). Modified SM medium (see Table 2) was used. […] Then CO2 was aerated to saturation (pH 5.6) for 24 hours continuously. […] Then air was sufficiently aerated."}, "Chlorococcum sp.": {"system": "Chlorococcum sp.", "assay": "Growth of cultured algae after treatment, 60 L glass plate reactor", "description": "as §1\nChlorococcum sp. (obtained from Qingdao Marine Institute) was cultured (pH 8.0-9.0 for the normal culture) in a 60 L glass plate reactor (manufactured by Longfang Jiangchuan plexiglass Co. Ltd., OP=10 cm) under a sunlight film (with a temperature of about 25 °C, a humidity of 60%-80%, and an illumination of 8000-20000 lux). Modified BG11 medium (see Table 3) was used. […] CO2 was aerated continuously. […] Then air was sufficiently aerated, and pH was raised to 7.0-8.0 in 4 hours.\n(§4) Chlorococcum sp. (obtained from Qingdao Marine Institute) was cultured in a 60 L glass plate reactor (manufactured by Longfang Jiangchuan plexiglass Co. Ltd., OP=10 cm) under a sunlight film (with a temperature of about 25 °C, a humidity of 60%-80%, and an illumination of 8000-20000 lux) (pH 8.0-9.0 for the normal culture). Modified BG11 medium (see Table 3) was used. […] Then CO2 was aerated and pH was adjusted to 7.0-8.0.\n(§5) Chlorococcum sp. (obtained from Qingdao Marine Institute) was cultured in a 60 L glass plate reactor (manufactured by Longfang Jiangchuan plexiglass Co. Ltd., OP=10 cm) under a sunlight film (with a temperature of about 25 °C, a humidity of 60%-80%, and an illumination of 8000-20000 lux) (pH 8.0-9.0 for the normal culture). Modified BG11 medium (see Table 3) was used. […] One hour later, CO2 was aerated to saturation (about pH 5.6) for 24 hour continuously. […] Then air was sufficiently aerated.\nas §4, with “air” for “CO2”, “sufficiently aerated.” for “aerated and pH was adjusted to 7.0-8.0.”\nas §4\nChlorococcum sp. (obtained from Qingdao Marine Institute) was cultured in a 60 L glass plate reactor (manufactured by Longfang Jiangchuan plexiglass Co. Ltd., OP=10 cm) under a sunlight film (with a temperature of about 25 °C, a humidity of 60%-80%, and an illumination of 8000-20000 lux) (pH 8.0-9.0 for the normal culture). Modified BG11 medium (see Table 3) was used."}, "Oxyrrhis": {"system": "Oxyrrhis", "assay": "Control of Oxyrrhis contamination in microalgae culture, microscope examination", "assay_type": "cell-based, Oxyrrhis sp", "text": "If the contaminated alga liquid is identified as acid tolerant contamination, pH value is raised up with alkalis in the culture system of the microalgae and maintained for a period of time. The pH value cannot be higher than the maximal tolerable pH of the microalgae. […] In an embodiment, said alkali can be ammonia. In an embodiment, said alkali can be NaOH. In an embodiment, said alkali can be 1M NaOH. Depending on different pH requirements and different culture systems, alkalis with different concentrations can be used according to the agitation condition, as long as the transient pH is not too high to be harmful to microalgae, and dilution of the cell concentration in the culture system (caused by adding too much alkali solution) should also be avoided. […] In an embodiment, the pH of the culture system is adjusted to 11.5-12.0 with 1M NaOH or 1M ammonia. In an embodiment, the pH of the culture system is adjusted to 11.0-11.8 or 8.0-11.0 with 1M NaOH or 1M ammonia. In an embodiment, the pH of the culture system is adjusted to 8.0-11.0, 11.5-12.0 or 11.0-11.8 and maintained for 3 hours.\nMicroscope examination is always used as one of the bases for determining the growth status in the process of microalgae culture.\nas §2, §3, §4, §5"}}}
{"smiles": "O=C=O", "note": "[CO2, carbon dioxide]", "values": [{"measurement": "growth of the algae", "setting": "Chlorella sp.", "result": "almost not affected"}, {"measurement": "time until algae started to grow (FIG. 4)", "setting": "Chlorella sp.", "result": "About 28 hours"}, {"measurement": "time until algae started to grow after recovery of pH7.0 or above", "setting": "Chlorella sp.; pH 7", "result": 24, "unit": "hours"}, {"measurement": "time until algae resumed to grow after air aeration", "setting": "Chlorella sp.; pH 9", "result": "Twenty-four"}, {"measurement": "growth of the algae", "setting": "Chlorococcum sp.", "result": "rarely affected"}, {"measurement": "time until algae started to grow after recovery of pH7.0 or above", "setting": "Chlorococcum sp.; pH 7", "result": 8, "unit": "hours"}, {"measurement": "time until algae resumed to grow after air aeration", "setting": "Chlorococcum sp.; pH 9", "result": "Eighteen"}, {"measurement": "Oxyrrhis, result of microscope examination", "setting": "Oxyrrhis; Example 4, after 1M NaOH pH 11.0-11.8 1 h, CO2 to saturation (pH 5.6) 24 hours", "result": "no Amoeba or Oxyrrhis"}, {"measurement": "Oxyrrhis, result of microscope examination", "setting": "Oxyrrhis; Example 7, after 1M NaOH pH 11.5-12.0 1 h, CO2 to saturation (about pH 5.6) 24 hour", "result": "no Amoeba or Oxyrrhis"}, {"measurement": "Oxyrrhis, result of microscope examination", "setting": "Oxyrrhis; Example 10, after 1M NaOH pH 11.5-12.0 1 h, CO2 to saturation (about pH 5.8) 23 hour", "result": "no Amoeba or Oxyrrhis"}, {"measurement": "Oxyrrhis, result of microscope examination", "setting": "Oxyrrhis; Example 12, after 1M ammonia pH 9.0 1 h, CO2 to saturation (pH 5.6) 24 hours", "result": "no Amoeba or Oxyrrhis"}, {"measurement": "Oxyrrhis, result of microscope examination", "setting": "Oxyrrhis; Example 14, after 1M ammonia pH 9.0 1 h, CO2 to saturation (about pH 5.6) 24 hour", "result": "no Amoeba or Oxyrrhis"}, {"measurement": "Oxyrrhis, result of microscope examination", "setting": "Oxyrrhis; Example 15, after 1M ammonia pH 10.0 1 h, CO2 to saturation (about pH 5.8) 23 hour", "result": "no Amoeba or Oxyrrhis"}]}
